The target in one series is T1, hα7-wt nAChR (Homo sapiens, UniProt P36544).
T1 construct: expressed in transfected cells
The experiment in a line: Ca2+ flux imaging (FDSS) (Protocol B), PAM activity with choline as agonist. The series is classed as cell-based. To be noted: for EC50: "<5" = no top plateau at maximal concentration; for Emax: read-out: % efficacy. As to the method: • Hanks buffered saline solution (HBSS, Invitrogen, Belgium), supplemented with 10 mM HEPES (Invitrogen, Belgium), CaCl2 to a final concentration of 5 mM, 0.1% Bovine serum albumin (Sigma-Aldrich NV, Belgium). b) Calcium-Sensitive Dye—Fluo-4AM • Fluo-4AM (Molecular Probes, USA) was dissolved in DMSO containing 10% Pluronic acid (Molecular Probes, USA) to give a stock solution which was diluted in assay buffer supplemented with 5 mM probenicid (Sigma, Aldrich NV, Belgium) to give a final concentration of 2 μM. c) 384-Well Plates • Black 384 well plate black/clear plates, PDL pre-coated (Corning, Incorporated, USA) d) Calcium Flux Measurement
A Functional drug screening system (FDSS, Hamamatsu) was used to measure intracellular free-calcium flux signals.
Monolayers of hα7-wt nAChR-expressing cells were grown in multi-well plates, in particular black-sided, transparent bottomed 384 well plates coated with poly-D-lysine for 24 hours prior to loading with a fluorescent calcium indicator, in a particular embodiment loading with fluo-4AM for up to 120 minutes.
PAM activity was detected in real time by applying the compounds to be tested to the loaded cells along with a α7 nicotinic receptor agonist during constant monitoring of cellular fluorescence in a FDSS. Compounds giving peak fluorescent responses greater than the response due to agonist alone, were considered to be α7 nAChR PAM's. In a particular embodiment, the α7 nicotinic receptor agonist was choline, a more particular embodiment choline applied at a sub-maximal concentration of 100 μM. In a further setting of the present invention the compounds to be tested were applied prior to the α7 nicotinic receptor agonist, in a particular embodiment up to 10 minutes prior to the agonist.
A control response to choline was calculated on each plate from the difference in peak in fluorescence in wells receiving either choline or assay buffer alone. Compounds of the present invention were tested at a concentration range from 0.01 μM to 30 μM. Compounds were considered to have an interesting activity when they potentiated the choline signal at least with 500% when tested at a concentration of 30 μM (the efficacy of 100 μM choline was defined as 100% in the absence of a PAM). The compounds also have a potentiating effect on the response to choline when measured by whole-cell patch clamp electrophysiology in GH4C1 cells stably over-expressing the human wild-type α7 receptor.
Background: Calcium flux is commonly read through the fluorescence of an indicator in the cells.

Molecules are shown by their SMILES.

T1 sequence (P36544 23-502): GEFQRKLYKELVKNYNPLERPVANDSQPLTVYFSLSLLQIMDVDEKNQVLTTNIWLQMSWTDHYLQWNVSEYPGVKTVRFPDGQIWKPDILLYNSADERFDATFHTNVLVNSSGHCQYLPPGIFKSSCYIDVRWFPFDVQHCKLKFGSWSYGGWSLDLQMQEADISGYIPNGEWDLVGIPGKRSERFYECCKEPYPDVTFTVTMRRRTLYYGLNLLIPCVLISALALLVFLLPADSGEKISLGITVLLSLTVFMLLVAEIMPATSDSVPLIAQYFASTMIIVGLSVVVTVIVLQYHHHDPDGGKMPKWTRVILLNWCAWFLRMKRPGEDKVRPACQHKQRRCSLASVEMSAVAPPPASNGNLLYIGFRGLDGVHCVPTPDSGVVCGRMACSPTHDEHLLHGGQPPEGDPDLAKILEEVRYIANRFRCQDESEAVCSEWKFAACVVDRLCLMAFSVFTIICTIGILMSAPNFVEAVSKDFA

`Cc1cc(-c2nc(Nc3ccc(F)c(C(F)(F)F)c3)nn2CCCC(=O)N(C)C)ccn1` [Compound 42] showed a melting point of 146.9 °C. In addition, at hα7-wt nAChR, the EC50 was 1000 nM.

The compound `CC(=O)CCCn1nc(Nc2ccc(F)c(C(F)(F)F)c2)nc1-c1ccnc(C)c1` [Compound 43] had a melting point of 124.1 °C. For the same compound, at hα7-wt nAChR, the EC50 is 794 nM.

Compound `COc1ccc(Nc2nc(-c3ccnc(C4CC4)c3)n(CCF)n2)cc1C(F)(F)F` [Compound 44] came in with a melting point of 165.8 °C. For the same compound, on hα7-wt nAChR, the half-maximal effective concentration (EC50) was 1260 nM and the Emax stood at 818%.

`Cc1cc(-c2nc(Nc3ccc4c(c3)OC(F)(F)O4)nn2CCC(=O)N(C)C)ccn1` [Compound 45] came in with a melting point of 219.3 °C. Besides, the EC50 at hα7-wt nAChR is 631 nM.

For the compound `CCNC(=O)Cn1nc(Nc2ccc3c(c2)OC(F)(F)O3)nc1-c1ccnc(C)c1` [Compound 46], the melting point is 244.9 °C. For the same compound, the concentration giving a half-maximal response (EC50) at hα7-wt nAChR is 2000 nM.

`CC(=O)CCn1nc(Nc2cccc(C(F)(F)F)c2)nc1-c1ccnc(C)c1` [Compound 47]: the melting point came to 138.1 °C. In addition, the EC50 at hα7-wt nAChR was more than 10000 nM.

Compound `Cc1cc(-c2nc(Nc3cccc(C(F)(F)F)c3)nn2CCC(=O)N(C)C)ccn1` [Compound 48] gave a melting point of 169.1 °C. The EC50 at hα7-wt nAChR was 631 nM.

Compound `CC(=O)c1ccc(-c2nc(Nc3ccc(F)c(F)c3)nn2C[C@H](C)O)cn1` [Compound 50] had a melting point of 147.8 °C. On hα7-wt nAChR, the EC50 is 6310 nM and the Emax was determined as 650%.

Regarding `C/C(N)=N/OC(=O)CCn1nc(Nc2ccc(F)c(C(F)(F)F)c2)nc1-c1ccncc1` [Compound 53], the melting point is 190.2 °C. The EC50 at hα7-wt nAChR is 5010 nM.

With `Cc1nc(CCn2nc(Nc3ccc(F)c(C(F)(F)F)c3)nc2-c2ccnc(Cl)c2)no1` [Compound 56], the melting point is 117.4 °C. For the same compound, on hα7-wt nAChR, the EC50 was 1260 nM and the Emax came to 717%.

Regarding `CN(C)C(=O)CCn1nc(Nc2ccc(F)c(C(F)(F)F)c2)nc1-c1ccnc(CNC(=O)C(F)(F)F)c1` [Compound 59], the melting point is 182.4 °C. Besides, on hα7-wt nAChR, the concentration for a half-maximal effect (EC50) is 158 nM and the Emax was 669%.

The compound `O=C(Cn1nc(Nc2ccc(F)c(C(F)(F)F)c2)nc1-c1ccnc(CO)c1)NC1CC1` [Compound 61] came in with a melting point of 242.2 °C. Further, the EC50 on hα7-wt nAChR was 5010 nM.

In turn, `COCc1cc(-c2nc(Nc3ccc(F)c(C(F)(F)F)c3)nn2CC(=O)NC2CC2)ccn1` [Compound 62] gave a melting point of 204.6 °C. Moreover, the EC50 on hα7-wt nAChR was 316 nM.

Consider `CN(C)C(=O)CCCn1nc(Nc2ccc(F)c(C(F)(F)F)c2)nc1-c1ccnc(Cl)c1` [Compound 68], for which the melting point amounted to 168.8 °C. In addition, at hα7-wt nAChR, the 50% effective concentration (EC50) is 794 nM.

`CCc1cc(-c2nc(Nc3cccc(C(F)(F)F)c3)nn2CCO)ccn1` [Compound 70] had a melting point of 167.9 °C. For the same compound, the concentration giving a half-maximal response (EC50) on hα7-wt nAChR is 2000 nM.

In turn, `CC(C)c1ccc(-c2nc(Nc3cccc(C(F)(F)F)c3)nn2CCO)cn1` [Compound 71] came in with a melting point of 177.1 °C. On hα7-wt nAChR, the concentration giving a half-maximal response (EC50) is 794 nM and the Emax was determined as 601%.

For `COc1ccc(-c2nc(Nc3cccc(C(F)(F)F)c3)nn2CCO)cn1` [Compound 72], the melting point stood at 160 °C. Besides, the 50% effective concentration (EC50) on hα7-wt nAChR is 1260 nM.

Regarding `COc1cc(-c2nc(Nc3cccc(C(F)(F)F)c3)nn2CCO)ccn1` [Compound 73], the melting point was found to be 165.4 °C. On hα7-wt nAChR, the 50% effective concentration (EC50) was 3160 nM.

In turn, `CC(C)Oc1cc(-c2nc(Nc3cccc(C(F)(F)F)c3)nn2CCO)ccn1` [Compound 74] registered a melting point of 159 °C. The 50% effective concentration (EC50) at hα7-wt nAChR was 1260 nM.

Turning to `CN(C)c1cc(-c2nc(Nc3cccc(C(F)(F)F)c3)nn2CCO)ccn1` [Compound 75], the melting point is 164.2 °C. The EC50 at hα7-wt nAChR is 2510 nM.

For `OCCn1nc(Nc2cccc(C(F)(F)F)c2)nc1-c1ccc(C2CC2)nc1` [Compound 76], the melting point came to 152.9 °C. Moreover, the EC50 at hα7-wt nAChR is 501 nM.

As to `OCCn1nc(Nc2cccc(C(F)(F)F)c2)nc1-c1ccc(N2CCOCC2)nc1` [Compound 77], the melting point was determined as 145.6 °C. In addition, the EC50 at hα7-wt nAChR was 2510 nM.

For `COCCNC(=O)Cn1nc(Nc2cccc(C(F)(F)F)c2)nc1-c1ccc2c(c1)OCCO2` [Compound 82], the melting point was 166.3 to 168.3 °C. Also, the EC50 at hα7-wt nAChR is 200 nM.

As to `COc1cc(-c2nc(Nc3cccc(C(F)(F)F)c3)nn2CCC(=O)N(C)C)cc(C)n1` [Compound 83], the melting point came out at 187.2 °C. At hα7-wt nAChR, the concentration giving a half-maximal response (EC50) was 200 nM.

Turning to `COc1cc(-c2nc(Nc3cccc(C(F)(F)F)c3)nn2CCC(=O)N(C)C)cc(Cl)n1` [Compound 84], the melting point was 177.7 °C. The concentration for a half-maximal effect (EC50) at hα7-wt nAChR is 316 nM.

Compound `O=C(CCn1nc(Nc2cccc(C(F)(F)F)c2)nc1-c1ccncc1)N1CCCC1` [Compound 85] returned a melting point of 182.2 °C. Moreover, at hα7-wt nAChR, the EC50 was 316 nM.

Regarding `OCCn1nc(Nc2ccc(F)c(C(F)(F)F)c2)nc1-c1ccncc1` [Compound 87], the melting point turned out to be 171.1 °C. Moreover, the EC50 at hα7-wt nAChR was 2510 nM.

Compound `CCc1cc(-c2nc(Nc3ccc(F)c(C(F)(F)F)c3)nn2CCO)ccn1` [Compound 88] yielded a melting point of 183 °C. At hα7-wt nAChR, the half-maximal effective concentration (EC50) is 631 nM.

`OCCn1nc(Nc2ccc(F)c(C(F)(F)F)c2)nc1-c1ccncc1F` [Compound 89] showed a melting point of 149.4 °C. The EC50 on hα7-wt nAChR is 5010 nM.

Compound `COc1cc(-c2nc(Nc3ccc(F)c(C(F)(F)F)c3)nn2CCO)ccn1` [Compound 90] came in with a melting point of 177.1 °C. Besides, the EC50 on hα7-wt nAChR is 2000 nM.

`CCOc1ccc(-c2nc(Nc3ccc(F)c(C(F)(F)F)c3)nn2CCO)cn1` [Compound 91] showed a melting point of 157.9 °C. In addition, at hα7-wt nAChR, the EC50 is 501 nM.

`CNc1ccc(-c2nc(Nc3ccc(F)c(C(F)(F)F)c3)nn2CCO)cn1` [Compound 92]: the melting point was 179 °C. For the same compound, the EC50 on hα7-wt nAChR is 3160 nM.

As to `OCCn1nc(Nc2ccc(F)c(C(F)(F)F)c2)nc1-c1ccc(C2CC2)nc1` [Compound 94], the melting point turned out to be 168 °C. Moreover, the EC50 on hα7-wt nAChR is 251 nM.

`FCCn1nc(Nc2ccc(F)c(C(F)(F)F)c2)nc1-c1ccc(C2CC2)nc1` [Compound 96]: the melting point amounted to 126.5 °C. For the same compound, the EC50 at hα7-wt nAChR is 2510 nM.

For the compound `Cc1cc(-c2nc(Nc3ccc(F)c(C(F)(F)F)c3)nn2C[C@H](C)O)ccn1` [Compound 97], the melting point is 145.2 °C. Also, the half-maximal effective concentration (EC50) on hα7-wt nAChR is 3160 nM.

The compound `CNc1cc(-c2nc(Nc3ccc(F)c(C(F)(F)F)c3)nn2C[C@H](C)O)ccn1` [Compound 98] returned a melting point of 164.5 °C. In addition, the EC50 at hα7-wt nAChR is more than 10000 nM.

The compound `C[C@H](O)Cn1nc(Nc2ccc(F)c(C(F)(F)F)c2)nc1-c1ccnc(NC2CC2)c1` [Compound 103] returned a melting point of 176.5 °C. Further, at hα7-wt nAChR, the EC50 is 794 nM.

Take `C[C@H](O)Cn1nc(Nc2ccc(F)c(C(F)(F)F)c2)nc1-c1ccnc(NCC2CC2)c1` [Compound 104]: the melting point is 145.8 °C. In addition, at hα7-wt nAChR, the EC50 was 3160 nM.

With `C[C@H](O)Cn1nc(Nc2ccc(F)c(C(F)(F)F)c2)nc1-c1cnc2c(c1)OCC2` [Compound 105], the melting point came out at 174.4 °C. For the same compound, the EC50 at hα7-wt nAChR was 3980 nM.

A word on the melting point: it is the temperature of the solid-liquid transition. For orientation: EC50 means the concentration giving half of the maximal effect.

The record behind these values is patent US8143419B2, “Trisubstituted 1,2,4-triazoles” (Janssen Pharmaceutica N. V., priority 2006, dated 2012).
